Assay results reported in patent publication US20180244611A1, “Modulators of the Cystic Fibrosis Transmembrane Conductance Regulator Protein and Methods of Use” (AbbVie S.à.r.l., priority 2017, published 2018).

Experiments:
F508delCFTR [1] = biological target: T1, F508delCFTR (Homo sapiens, UniProt P13569, DEL508-508); assay: Cell Surface Expression-Horse Radish Peroxidase (CSE-HRP) assay, test compound without co-corrector; type: cell-based; conditions: for Emax: maximum at any tested concentration, normalized to positive control, without co-corrector; for EC50: test compound without co-corrector;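 on Emax: percent of on-plate 2 µM positive control corrector response over DMSO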
T1 construct: expressed in transfected cells; host or cells: CFBE41o- human lung-derived epithelial cells (CFBE41o-F508delCFTR-HRP), doxycycline-inducible
T1 sequence (P13569 with tags, fused parts or gaps DEL508-508): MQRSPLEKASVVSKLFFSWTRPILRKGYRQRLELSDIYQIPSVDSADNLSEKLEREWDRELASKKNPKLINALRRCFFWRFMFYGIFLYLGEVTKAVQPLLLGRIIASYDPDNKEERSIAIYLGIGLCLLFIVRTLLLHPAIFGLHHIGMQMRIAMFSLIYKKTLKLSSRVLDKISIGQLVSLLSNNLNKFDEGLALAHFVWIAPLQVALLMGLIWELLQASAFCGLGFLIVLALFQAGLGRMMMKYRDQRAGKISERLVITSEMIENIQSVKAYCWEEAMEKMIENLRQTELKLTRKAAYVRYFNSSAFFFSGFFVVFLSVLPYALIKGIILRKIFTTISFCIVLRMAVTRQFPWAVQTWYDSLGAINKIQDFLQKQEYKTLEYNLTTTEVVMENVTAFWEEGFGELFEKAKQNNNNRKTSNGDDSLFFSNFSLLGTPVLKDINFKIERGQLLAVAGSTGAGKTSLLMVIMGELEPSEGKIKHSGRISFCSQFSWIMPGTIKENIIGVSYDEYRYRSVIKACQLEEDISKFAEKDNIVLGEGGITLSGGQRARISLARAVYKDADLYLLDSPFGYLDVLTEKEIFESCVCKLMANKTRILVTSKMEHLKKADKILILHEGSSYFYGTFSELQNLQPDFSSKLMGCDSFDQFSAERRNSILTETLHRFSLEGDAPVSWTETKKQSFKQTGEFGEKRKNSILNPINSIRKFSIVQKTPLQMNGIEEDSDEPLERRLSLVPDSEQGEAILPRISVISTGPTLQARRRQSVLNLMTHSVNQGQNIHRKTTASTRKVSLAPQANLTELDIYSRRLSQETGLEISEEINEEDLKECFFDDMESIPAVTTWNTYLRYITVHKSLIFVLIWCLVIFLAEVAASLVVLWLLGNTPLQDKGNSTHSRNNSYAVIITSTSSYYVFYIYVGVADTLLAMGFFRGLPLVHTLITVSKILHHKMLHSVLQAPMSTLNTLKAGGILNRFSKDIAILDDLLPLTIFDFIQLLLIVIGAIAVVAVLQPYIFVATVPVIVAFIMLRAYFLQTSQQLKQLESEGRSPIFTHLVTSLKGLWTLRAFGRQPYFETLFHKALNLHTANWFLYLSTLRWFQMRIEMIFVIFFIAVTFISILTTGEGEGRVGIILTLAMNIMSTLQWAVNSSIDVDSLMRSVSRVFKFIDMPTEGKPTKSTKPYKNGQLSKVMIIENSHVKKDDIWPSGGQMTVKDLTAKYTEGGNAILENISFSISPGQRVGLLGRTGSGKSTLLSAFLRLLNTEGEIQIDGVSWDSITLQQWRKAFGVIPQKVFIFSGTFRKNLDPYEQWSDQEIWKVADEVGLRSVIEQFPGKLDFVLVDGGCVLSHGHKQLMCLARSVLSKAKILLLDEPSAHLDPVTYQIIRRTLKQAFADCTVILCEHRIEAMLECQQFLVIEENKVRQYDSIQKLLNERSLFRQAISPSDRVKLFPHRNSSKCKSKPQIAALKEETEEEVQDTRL
Method in brief: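 Compound without co-corrector was tested at eight 3-fold concentrations, top 20 μM, for 18-24 h at 33° C on doxycycline-induced (0.5 μg/mL, 72 h) CFBE41o- F508delCFTR-HRP cells. After DPBS washes, luminol luminescence gave % activity relative to on-plate positive control minus DMSO; EC50 came from triplicate-plate sigmoidal fitting.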

F508delCFTR [2] = biological target: T1, F508delCFTR; assay: Cell Surface Expression-Horse Radish Peroxidase (CSE-HRP) assay, test compound with co-corrector; type: cell-based; conditions: with 2 μM co-corrector; for Maximum % activity (with co-corrector): maximum at any tested concentration, normalized to positive control;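 on Maximum % activity (with co-corrector): percent of 2 µM positive control corrector over DMSO; co-corrector is that same compound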
Method in brief: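 Surface-expression read-out: luminol luminescence from an HRP tag in the fourth exofacial loop of F508delCFTR, in doxycycline-induced (0.5 μg/mL, 72 h) CFBE41o- cells. Compound plus 2 μM co-corrector added for 18-24 h at 33° C., 8-point 3-fold series up to 20 μM. EC50 from a sigmoidal fit with variable Hill slope, normalised to positive control, triplicate plates.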

With `CCN1CCC[C@H]1CNC(=O)c1cc(S(=O)(=O)NC(=O)C2CCc3c(OC)cccc32)ccc1OC` (stereo partly shown) [III-52] the Emax (F508delCFTR [1]) was less than 50%, the EC50 (F508delCFTR [1]) was no less than 10 µM and the “Maximum % activity (with co-corrector)” value (F508delCFTR [2]) was “+ (<150)”. The EC50 (F508delCFTR [2]) was no less than 10 µM.
In the case of `CCOc1ccc2nc(S(=O)(=O)NC(=O)C3CCc4c(OC)cccc43)sc2c1` (stereo not shown) [III-53], the Emax (F508delCFTR [1]) is reported as less than 50%, the EC50 (F508delCFTR [1]) is reported as no less than 10 µM and the “Maximum % activity (with co-corrector)” value (F508delCFTR [2]) is reported as “+ (<150)”. For the same molecule, the EC50 (F508delCFTR [2]) was no less than 10 µM.
`CCCCCC(=O)c1ccc(S(=O)(=O)NC(=O)C2CCc3c(OC)cccc32)cc1` (stereo not shown) [III-54] was tested, and the Emax (F508delCFTR [1]) was less than 50%, the EC50 (F508delCFTR [1]) was no less than 10 µM and the “Maximum % activity (with co-corrector)” value (F508delCFTR [2]) was “+ (<150)”. For the same molecule, the EC50 (F508delCFTR [2]) was no less than 10 µM.
In the case of `COc1cccc2c1CCC2C(=O)NS(=O)(=O)c1ccc(N2CCN(CC[C@@H]3OCCc4ccccc43)CC2)cc1` (stereo partly shown) [III-55], the Emax (F508delCFTR [1]) is reported as less than 50%, the EC50 (F508delCFTR [1]) is reported as no less than 10 µM and the “Maximum % activity (with co-corrector)” value (F508delCFTR [2]) is reported as “+ (<150)”. For the same molecule, the EC50 (F508delCFTR [2]) was 3 to 10 µM.
In the case of `COc1cccc2c1CCC2C(=O)NS(=O)(=O)c1ccccc1C(=O)OC(C)C` (stereo not shown) [III-56], the Emax (F508delCFTR [1]) is reported as 50 to 150%, the EC50 (F508delCFTR [1]) is reported as 3 to 10 µM and the “Maximum % activity (with co-corrector)” value (F508delCFTR [2]) is reported as “+++ (≥350)”. For the same molecule, the EC50 (F508delCFTR [2]) was 3 to 10 µM.
For `COc1cccc2c1CCC2C(=O)NS(=O)(=O)c1ccc(NCCC(C)(C)O)c([N+](=O)[O-])c1` (stereo not shown) [III-57], the Emax (F508delCFTR [1]) was less than 50%, the EC50 (F508delCFTR [1]) was no less than 10 µM and the “Maximum % activity (with co-corrector)” value (F508delCFTR [2]) was “+ (<150)”. The EC50 (F508delCFTR [2]) was no less than 10 µM.
In the case of `COc1cccc2c1CCC2C(=O)NS(=O)(=O)c1cc(-c2nc3c([nH]2)c(=O)n(C)c(=O)n3C)ccc1Cl` (stereo not shown) [III-58], the Emax (F508delCFTR [1]) is reported as less than 50%, the EC50 (F508delCFTR [1]) is reported as 3 to 10 µM and the “Maximum % activity (with co-corrector)” value (F508delCFTR [2]) is reported as “++ (≥150 and <350)”. For the same molecule, the EC50 (F508delCFTR [2]) was 3 to 10 µM.
With `COc1cccc2c1CCC2C(=O)NS(=O)(=O)c1nc2c(c(=O)n(C)c(=O)n2C)n1Cc1ccc(Cl)cc1` (stereo not shown) [III-59] the Emax (F508delCFTR [1]) was less than 50%, the EC50 (F508delCFTR [1]) was no less than 10 µM and the “Maximum % activity (with co-corrector)” value (F508delCFTR [2]) was “+ (<150)”. It also gave an EC50 (F508delCFTR [2]) of no less than 10 µM.
`COc1cccc2c1CCC2C(=O)NS(=O)(=O)c1nc2c(=O)n(C)c(=O)n(C)c2n1Cc1ccccc1` (stereo not shown) [III-60] was tested, and the Emax (F508delCFTR [1]) was less than 50%, the EC50 (F508delCFTR [1]) was no less than 10 µM and the “Maximum % activity (with co-corrector)” value (F508delCFTR [2]) was “+ (<150)”. The EC50 (F508delCFTR [2]) was no less than 10 µM.
For `COc1cccc2c1CCC2C(=O)NS(=O)(=O)c1ccc(CN(C)C)cc1` (stereo not shown) [III-61], the Emax (F508delCFTR [1]) was less than 50%, the EC50 (F508delCFTR [1]) was no less than 10 µM and the “Maximum % activity (with co-corrector)” value (F508delCFTR [2]) was “+ (<150)”. For the same molecule, the EC50 (F508delCFTR [2]) was no less than 10 µM.
For `COc1cccc2c1CCC2C(=O)NS(=O)(=O)c1cccc(F)c1C#N` (stereo not shown) [III-62], the Emax (F508delCFTR [1]) was less than 50%, the EC50 (F508delCFTR [1]) was no less than 10 µM and the “Maximum % activity (with co-corrector)” value (F508delCFTR [2]) was “+ (<150)”. The EC50 (F508delCFTR [2]) was 3 to 10 µM.
For `COc1cccc2c1CCC2C(=O)NS(=O)(=O)c1ccc(O)c([N+](=O)[O-])c1` (stereo not shown) [III-63], the Emax (F508delCFTR [1]) was less than 50%, the EC50 (F508delCFTR [1]) was no less than 10 µM and the “Maximum % activity (with co-corrector)” value (F508delCFTR [2]) was “+ (<150)”. It also gave an EC50 (F508delCFTR [2]) of no less than 10 µM.
With `COc1cccc2c1CCC2C(=O)NS(=O)(=O)c1cccc(C#N)c1` (stereo not shown) [III-64] the Emax (F508delCFTR [1]) was less than 50%, the EC50 (F508delCFTR [1]) was no less than 10 µM and the “Maximum % activity (with co-corrector)” value (F508delCFTR [2]) was “+ (<150)”. It also gave an EC50 (F508delCFTR [2]) of no less than 10 µM.
With `COc1cccc2c1CCC2C(=O)NS(=O)(=O)c1cncc(Br)c1` (stereo not shown) [III-65] the Emax (F508delCFTR [1]) was less than 50%, the EC50 (F508delCFTR [1]) was no less than 10 µM and the “Maximum % activity (with co-corrector)” value (F508delCFTR [2]) was “+ (<150)”. It also gave an EC50 (F508delCFTR [2]) of no less than 10 µM.
With `COc1cccc2c1CCC2C(=O)NS(=O)(=O)c1ccc(O)nc1` (stereo not shown) [III-66] the Emax (F508delCFTR [1]) was less than 50%, the EC50 (F508delCFTR [1]) was no less than 10 µM and the “Maximum % activity (with co-corrector)” value (F508delCFTR [2]) was “+ (<150)”. The EC50 (F508delCFTR [2]) was no less than 10 µM.
For `COc1cccc2c1CCC2C(=O)NS(=O)(=O)c1c(C(=O)OC(C)(C)C)c(C)nn1C` (stereo not shown) [III-68], the Emax (F508delCFTR [1]) was less than 50%, the EC50 (F508delCFTR [1]) was no less than 10 µM and the “Maximum % activity (with co-corrector)” value (F508delCFTR [2]) was “+ (<150)”. For the same molecule, the EC50 (F508delCFTR [2]) was no less than 10 µM.
In the case of `COc1cccc2c1CCC2C(=O)NS(=O)(=O)c1c(CO)c(C)nn1C` (stereo not shown) [III-69], the Emax (F508delCFTR [1]) is reported as less than 50%, the EC50 (F508delCFTR [1]) is reported as no less than 10 µM and the “Maximum % activity (with co-corrector)” value (F508delCFTR [2]) is reported as “+ (<150)”. The EC50 (F508delCFTR [2]) was no less than 10 µM.
`COc1cccc2c1CCC2C(=O)NS(=O)(=O)c1cccc(Cl)c1F` (stereo not shown) [III-70] was tested, and the Emax (F508delCFTR [1]) was less than 50%, the EC50 (F508delCFTR [1]) was no less than 10 µM and the “Maximum % activity (with co-corrector)” value (F508delCFTR [2]) was “+ (<150)”. The EC50 (F508delCFTR [2]) was no less than 10 µM.
`COc1cccc2c1CCC2C(=O)NS(=O)(=O)c1c(F)cccc1F` (stereo not shown) [III-71] was tested, and the Emax (F508delCFTR [1]) was less than 50%, the EC50 (F508delCFTR [1]) was no less than 10 µM and the “Maximum % activity (with co-corrector)” value (F508delCFTR [2]) was “++ (≥150 and <350)”. For the same molecule, the EC50 (F508delCFTR [2]) was 3 to 10 µM.
`COc1ccc2c(c1OC)CCC2C(=O)NS(=O)(=O)c1ccccc1C` (stereo not shown) [III-72] was tested, and the Emax (F508delCFTR [1]) was less than 50%, the EC50 (F508delCFTR [1]) was no less than 10 µM and the “Maximum % activity (with co-corrector)” value (F508delCFTR [2]) was “+ (<150)”. The EC50 (F508delCFTR [2]) was no less than 10 µM.
With `COc1cccc2c1CCC2C(=O)NS(=O)(=O)c1cc(Cl)ccc1F` (stereo not shown) [III-73] the Emax (F508delCFTR [1]) was less than 50%, the EC50 (F508delCFTR [1]) was no less than 10 µM and the “Maximum % activity (with co-corrector)” value (F508delCFTR [2]) was “+ (<150)”. The EC50 (F508delCFTR [2]) was no less than 10 µM.
`COc1cccc2c1CCC2C(=O)NS(=O)(=O)c1cc(F)ccc1F` (stereo not shown) [III-74] was tested, and the Emax (F508delCFTR [1]) was less than 50%, the EC50 (F508delCFTR [1]) was no less than 10 µM and the “Maximum % activity (with co-corrector)” value (F508delCFTR [2]) was “+ (<150)”. It also gave an EC50 (F508delCFTR [2]) of no less than 10 µM.
